From PMC8637766, “A mixed chirality α-helix in a stapled bicyclic and a linear antimicrobial peptide revealed by X-ray crystallography” (RSC Chemical Biology, 2021)
≈ marks a conversion by molar mass, not a printed value. Square brackets hold non-standard residues; d marks the D form. Ends that are not written are not given here. Peptide text beside a SMILES is read from it. * marks the point of attachment. Benzoyl(4-Me) = Cc1ccc(C(=O)*)cc1

How the values were obtained:
[1] = tested on: P. aeruginosa PAO1; format: cell-based, Pseudomonas aeruginosa
Description: (§1) Bicyclic and linear peptides cytotoxicity was assayed against P. aeruginosa PAO1, P. aeruginosa ZEM-1A, P. aeruginosa ZEM9A, K. pneumoniae Oxa-48, E. coli W3110, A. baumannii BAL225, S. aureus Newman, S. aureus COL (clinical isolate of MRSA) , B. Subtilis BR151.
(§2) To determine the Minimal Inhibitory Concentration (MIC), Broth Microdilution method was used . 2 A colony of bacteria from glycerol stock was grown in LB medium overnight at 37 °C and 180 rpm shaking. The compounds were prepared as stock solutions of 8 mg/mL in sterilized milliQ deionized water, added to the first well of 96 -well sterile, polypropylene round bottom microtiter plates (TPP, untreated) and diluted serially by ½. The concentration of the bacteria was quantified by measuring absorbance at 600 nm and diluted to an OD 600 of 0.022 in MH medium. The sample solutions (150 µL) were mixed with 4 µL diluted bacterial suspension with a final inoculation of about 5×10^5 CFU.
(§3) For each test, two columns of the plate were kept for sterility control (MH medium only), growth control (MH medium with bacterial inoculum, no compound). The positive control, Polymyxin B (starting with a concentration of 64 µg/mL) in MH medium with bacterial inoculums, was introduced in the two first lines of the plate. The plates were incubated at 37 °C for ~18 hours under static conditions. 15 μL of 3-(4,5-dimethylthiazol-2-yl)-2,5-diphenyltetrazolium bromide (MTT)3 (1 mg/mL in sterilized milliQ deionized water) were added to each well and the plates were incubated for 20-30 minutes at room temperature. The minimal inhibitory concentration (MIC) was defined as the lowest concentration of the dendrimer that inhibits the visible growth of the tested bacteria (yellow) with the unaided eye.

[2] = tested on: P. aeruginosa ZEM-1A; format: cell-based, Pseudomonas aeruginosa
Description: as §1, §2, §3

[3] = tested on: P. aeruginosa ZEM9A; format: cell-based, Pseudomonas aeruginosa
Description: as §1, §2, §3

[4] = Lipid vesicle leakage assay, 5(6)-carboxyfluorescein release; conditions: 10 μg mL^−1 compound, leakage at 250 s; 10 mM TRIS, 107 mM NaCl, pH 7.4, 25 °C; carboxyfluorescein fluorescence, Triton X-100 = full release
Description: 4 Lipid Vesicle Leakage assays
5(6)-carboxyfluorescein (CF) was purchased from Sigma. Egg Yolk Phosphatidylcholine (EYPC),
Egg Yolk Phosphatidylglycerol (EYPG) and a Mini-Extruder were purchased from Avanti Polar
Lipids. Egg PC or Egg PG thin lipid layers were prepared by evaporating a solution of 100 mg EYPC
or EYPG in 4 mL MeOH/CHCl3 (1:1) on a rotary evaporator at room temperature and then dried in
vacuo overnight. The resulting film was then hydrated with 4 mL CF buffer (50 mM CF, 10 mM
TRIS, 107 mM NaCl, pH 7.4) for 30 min, subjected to freeze-thaw cycles (7×) and extrusion (15×)
through a polycarbonate membrane (pore size 100 nm). Extra vesicular components were removed
by gel filtration (Sephadex G-50) with 10 mM TRIS, 107 mM NaCl, pH 7.4 buffer. Final conditions:
~ 2.5 mM PC or PG; inside: 50 mM CF, 10 mM TRIS, 10 mM NaCl, pH 7.4 buffer; outside: 10 mM
TRIS, 107 mM NaCl, pH 7.4. PC or PG stock solutions (37.5 µL) were diluted to 3000 µL with a
buffer (10 mM TRIS, 107 mM NaCl, pH 7.4) in a thermostated fluorescence cuvette (25 °C) and
gently stirred (final lipid concentration ~31 µM). CF efflux was monitored at λem 517 nm (λex 492
nm) as a function of time after addition of the desired volume of peptide (1 or 20 mg/mL stock in mQ
water) at t = 45 s. The following final concentrations of peptide were monitored: 5, 10, 15, 20, 25 and
200 µg/mL. Finally, 30 µL of 1.2% Triton X -100 was added to the cuvette (0.012% final
concentration) at t = 285 s to reach the maximum intensity. Fluorescence intensities were then
Figure S1: Vesicle leakage experiments using 5(6)-carboxyfluorescein induced by peptides. EYPG and EYPC vesicles
were suspended in buffer (10 mM TRIS, 107 mM NaCl, pH 7.4) and the indicated concentration of the compound was
added after 45 sec. After 285 seconds 30 μL Triton X-100 1.2% was added for full release of fluorescein. […]

[5] = tested on: A. baumannii BAL225; format: cell-based
Description: as §1, §2, §3

[6] = tested on: E. coli W3110; format: cell-based
Description: as §1, §2, §3

[7] = tested on: K. pneumoniae Oxa-48; format: cell-based
Description: as §1, §2, §3

[8] = tested on: S. aureus COL (clinical isolate of MRSA); format: cell-based
Description: as §1, §2, §3

[9] = tested on: S. aureus Newman; format: cell-based
Description: as §1, §2, §3

[10] = tested on: B. subtilis BR151; format: cell-based, Bacillus subtilis; conditions: BR151, 20 h
Description: as §1, §2
For each test, two columns of the plate were kept for sterility control (MH medium only), growth control (MH medium with bacterial inoculum, no compound). The positive control, Polymyxin B (starting with a concentration of 64 µg/mL) in MH medium with bacterial inoculums, was introduced in the two first lines of the plate. […]
conditions. 15 μL of 3-(4,5-dimethylthiazol-2-yl)-2,5-diphenyltetrazolium bromide (MTT)3 (1 mg/mL in sterilized milliQ deionized water) were added to each well and the plates were incubated for 20-30 minutes at room temperature. The minimal inhibitory concentration (MIC) was defined as the lowest concentration of the dendrimer that inhibits the visible growth of the tested bacteria (yellow) with the unaided eye.

Molecule	MIC PAO1 [1] [µg/mL]	MIC P. aeruginosa ZEM-1A [2] [µg/mL]	MIC P. aeruginosa ZEM9A [3] [µg/mL]	MIC A. baumannii BAL225 [5] [µg/mL]	MIC E. coli W3110 [6] [µg/mL]	MIC K. pneumoniae Oxa-48 [7] [µg/mL]	MIC S. aureus COL [8] [µg/mL]	MIC S. aureus Newman [9] [µg/mL]	MIC BR 151 [10] [µg/mL]	EYPC vesicle leakage [4] [%]	EYPG vesicle leakage [4] [%]
Cc1c2cc3cc1CSC[C@H](NC(=O)[C@H](CCCCN)NC(=O)[C@H](CC(C)C)NC(=O)[C@H](CC(C)C)NC(=O)[C@H](CCCCN)NC(=O)[C@H](CCCCN)NC3=O)C(=O)N[C@@H](CC(C)C)C(=O)N[C@@H](CCCCN)C(=O)N[C@H](C(=O)N[C@@H](CC(C)C)C(=O)N[C@@H](CC(C)C)C(N)=O)CSC2 [bp65] (HELM PEPTIDE1{K.K.L.L.K.C.L.K.C.L.L.[am]}|CHEM1{[Cc1c(C[*:2])cc(C(=O)[*:1])cc1C[*:3]]}$PEPTIDE1,CHEM1,1:R1-1:R1|PEPTIDE1,CHEM1,6:R3-1:R2|PEPTIDE1,CHEM1,9:R3-1:R3$$$V2.0)	8 (≈ 5.54 µM)	8 (≈ 5.54 µM)	>32	4 (≈ 2.77 µM)	8 (≈ 5.54 µM)	16 (≈ 11.1 µM)	8 (≈ 5.54 µM)	8 (≈ 5.54 µM)	2 (≈ 1.39 µM)	37	34
Cc1c2cc3cc1CSC[C@H](NC(=O)[C@@H](CCCCN)NC(=O)[C@H](CC(C)C)NC(=O)[C@H](CC(C)C)NC(=O)[C@@H](CCCCN)NC(=O)[C@@H](CCCCN)NC3=O)C(=O)N[C@@H](CC(C)C)C(=O)N[C@H](CCCCN)C(=O)N[C@H](C(=O)N[C@@H](CC(C)C)C(=O)N[C@@H](CC(C)C)C(N)=O)CSC2 [bp69] (HELM PEPTIDE1{[dK].[dK].L.L.[dK].C.L.[dK].C.L.L.[am]}|CHEM1{[Cc1c(C[*:2])cc(C(=O)[*:1])cc1C[*:3]]}$PEPTIDE1,CHEM1,1:R1-1:R1|PEPTIDE1,CHEM1,6:R3-1:R2|PEPTIDE1,CHEM1,9:R3-1:R3$$$V2.0)	16 (≈ 11.1 µM)	4 to 8	>32	4 (≈ 2.77 µM)	8 (≈ 5.54 µM)	16 (≈ 11.1 µM)	4 (≈ 2.77 µM)	2 to 4	–	57	48
KKLLKLLKLLL-NH2 [ln65]	2 to 4	2 to 4	16	2 to 4	4	4	4	2 to 4	–	–	–

Second part, led by results:

MIC PAO1 [1] [µg/mL]	MIC P. aeruginosa ZEM-1A [2] [µg/mL]	MIC P. aeruginosa ZEM9A [3] [µg/mL]	MIC A. baumannii BAL225 [5] [µg/mL]	MIC E. coli W3110 [6] [µg/mL]	MIC K. pneumoniae Oxa-48 [7] [µg/mL]	MIC S. aureus COL [8] [µg/mL]	MIC S. aureus Newman [9] [µg/mL]	MIC BR 151 [10] [µg/mL]	Molecule	EYPC vesicle leakage [4] [%]	EYPG vesicle leakage [4] [%]
4 to 8	4 (≈ 2.76 µM)	16 (≈ 11 µM)	4 (≈ 2.76 µM)	8 (≈ 5.52 µM)	8 (≈ 5.52 µM)	4 (≈ 2.76 µM)	4 (≈ 2.76 µM)	–	CSC[C@H](NC(=O)[C@H](CCCCN)NC(=O)[C@H](CC(C)C)NC(=O)[C@H](CSC)NC(=O)[C@H](CCCCN)NC(=O)[C@H](CC(C)C)NC(=O)[C@H](CC(C)C)NC(=O)[C@H](CCCCN)NC(=O)[C@H](CCCCN)NC(=O)c1ccc(C)cc1)C(=O)N[C@@H](CC(C)C)C(=O)N[C@@H](CC(C)C)C(N)=O [ln65b] ({Benzoyl(4-Me)}-KKLLKC(Me)LKC(Me)LL-NH2)	–	–
8 (≈ 6.05 µM)	8 (≈ 6.05 µM)	>32	2 to 4	4 (≈ 3.03 µM)	8 (≈ 6.05 µM)	16 (≈ 12.1 µM)	8 (≈ 6.05 µM)	–	CC(C)C[C@H](NC(=O)[C@H](CC(C)C)NC(=O)[C@H](CC(C)C)NC(=O)[C@@H](CCCCN)NC(=O)[C@H](CC(C)C)NC(=O)[C@H](CC(C)C)NC(=O)[C@@H](CCCCN)NC(=O)[C@H](CC(C)C)NC(=O)[C@H](CC(C)C)NC(=O)[C@@H](CCCCN)NC(=O)[C@H](N)CCCCN)C(N)=O [ln69] (HELM PEPTIDE1{[dK].[dK].L.L.[dK].L.L.[dK].L.L.L.[am]}$$$$V2.0)	–	–
16 (≈ 11 µM)	8 (≈ 5.52 µM)	>32	8 (≈ 5.52 µM)	8 (≈ 5.52 µM)	>32	32 (≈ 22.1 µM)	32 (≈ 22.1 µM)	–	CSC[C@H](NC(=O)[C@@H](CCCCN)NC(=O)[C@H](CC(C)C)NC(=O)[C@H](CSC)NC(=O)[C@@H](CCCCN)NC(=O)[C@H](CC(C)C)NC(=O)[C@H](CC(C)C)NC(=O)[C@@H](CCCCN)NC(=O)[C@@H](CCCCN)NC(=O)c1ccc(C)cc1)C(=O)N[C@@H](CC(C)C)C(=O)N[C@@H](CC(C)C)C(N)=O [ln69b] ({Benzoyl(4-Me)}-[dK][dK]LL[dK]C(Me)L[dK]C(Me)LL-NH2)	–	–
